The target in one assay is human D3R (Homo sapiens (Human), UniProt P35462). Put plainly: Radioligand competition binding, [3H]N-methylspiperone, HEK293 membranes expressing human D3R. Particulars: for D2/D3: ratio of Ki values; for Ki: read-out: D3R Ki ± SEM. The protocol: (§1) Binding at dopamine D2-like receptors was determined using previously described methods. […] Upon reaching 80-90% confluence, cells were harvested using pre-mixed Earle's Balanced Salt Solution (EBSS) with […] EDTA (Life Technologies) and centrifuged at 3000 rpm for 10 min at 21° C. The supernatant was removed and the pellet was resuspended in 10 mL hypotonic lysis buffer (5 mM MgCl2.6H2O, 5 mM Tris, pH 7.4 at 4° C.) and centrifuged at 20,000 rpm for 30 min at 4° C. The pellet was then resuspended in fresh EBSS buffer made from 8.7 g/L Earle's Balanced Salts without phenol red (US Biological, Salem, Mass.), 2.2 g/L sodium bicarbonate, pH to 7.4. A Bradford protein assay (Bio-Rad, Hercules, Calif.) was used to determine the protein concentration and membranes were diluted to 500 μg/mL and stored in a −80° C. freezer for later use.
human D3R, sequence (P35462 whole entry): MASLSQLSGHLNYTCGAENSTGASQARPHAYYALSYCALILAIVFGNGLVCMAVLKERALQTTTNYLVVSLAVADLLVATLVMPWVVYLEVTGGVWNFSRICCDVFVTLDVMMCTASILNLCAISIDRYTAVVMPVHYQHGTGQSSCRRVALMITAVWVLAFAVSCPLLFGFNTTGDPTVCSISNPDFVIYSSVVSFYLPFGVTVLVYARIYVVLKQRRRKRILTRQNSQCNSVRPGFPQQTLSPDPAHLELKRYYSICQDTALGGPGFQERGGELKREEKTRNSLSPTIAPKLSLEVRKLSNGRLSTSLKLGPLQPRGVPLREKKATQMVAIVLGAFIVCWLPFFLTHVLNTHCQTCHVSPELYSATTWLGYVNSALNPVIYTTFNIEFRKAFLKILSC
(§2) Radioligand competition binding experiments were conducted using thawed membranes. Test compounds were freshly dissolved in 30% DMSO and 70% H2O to a stock concentration of 100 μM. To assist the solubilization of free-base compounds, 10 μl of glacial acetic acid was added along with the DMSO. Each test compound was then diluted into 13 half-log serial dilutions using 30% DMSO vehicle; final test concentrations ranged from 10 μM to 10 pM. Previously frozen membranes were diluted in fresh EBSS to a 100 μg/mL (for hD2R or hD3R) or 200 μg/mL (hD4R) stock for binding. […] buffer with 0.2 mM sodium metabisulfite, 50 μl of diluted test compound, 100 μl of membranes (10 μg total protein for hD2R or hD3R, 20 μg total protein for hD4R), and 50 μl of [^3H]N-methylspiperone (0.4 nM final concentration; Perkin Elmer). Nonspecific binding was determined using 10 μM butaclamol (Sigma-Aldrich, St. Louis, Mo.) and total binding was determined with 30% DMSO vehicle. All compound dilutions were tested in triplicate and the reaction incubated for one hour at room temperature. The reaction was terminated by filtration through Whatman GF/B filters, presoaked for one hour in 0.5% polyethylenimine, using a Brandel R48 filtering manifold (Brandel Instruments, Gaithersburg, Md.). The filters were washed 3 times with 3 mL of ice cold EBSS buffer and transferred to scintillation vials. […] IC50 values for each compound were determined from dose-response curves and Ki values were calculated using the Cheng-Prusoff equation; these analyses were performed using GraphPad Prism version 5.00 for Windows (GraphPad Software, San Diego, Calif.). Reported Ki values were determined from least three independent experiments.
(§3) The binding affinities of the compounds were evaluated by performing competition binding studies with [^3H]N-methylspiperone using membranes prepared from HEK293 cells expressing either the human D2R or D3R.

The next assay concerns the target human D2R (Homo sapiens (Human), UniProt P14416). Briefly: Radioligand competition binding, [3H]N-methylspiperone, HEK293 membranes expressing human D2R. Particulars: read-out: D2R Ki ± SEM. The protocol:
as §1, §2, §3
A general note: In a radioligand displacement assay an active substance lowers the binding of a labelled ligand.

The next assay deals with human D4R (Homo sapiens (Human), UniProt P21917). Briefly: Radioligand competition binding, [3H]N-methylspiperone, HEK293 membranes expressing human D4R. Particulars: Table 1A; for Ki: [3H]N-methylspiperone, read-out: D4R Ki ± SEM; for D4/D2 / D4/D3: ratio of Ki values. As to the method:
Binding at dopamine D2-like receptors was determined using previously described methods. (Chen et al. “Tranylcypromine substituted cis-hydroxycyclobutylnaphthamides as potent and selective dopamine D(3) receptor antagonists.” J. Med. Chem. 2014, 57, 4962-4968) Membranes were prepared from HEK293 cells expressing human D2R, D3R or D4R, grown in a 50:50 mix of DMEM and Ham's F12 culture media, supplemented with 20 mM HEPES, 2 mM L-glutamine, 0.1 mM non-essential amino acids, 1× antibiotic/antimycotic, 10% heat-inactivated fetal bovine serum, and 200 μg/mL hygromycin (Life Technologies, Grand Island, N.Y.) and kept in an incubator at 37° C. and 5% CO2. Upon reaching 80-90% confluence, cells were harvested using pre-mixed Earle's Balanced Salt Solution (EBSS) with […] EDTA (Life Technologies) and centrifuged at 3000 rpm for 10 min at 21° C. The supernatant was removed and the pellet was resuspended in 10 mL hypotonic lysis buffer (5 mM MgCl2.6H2O, 5 mM Tris, pH 7.4 at 4° C.) and centrifuged at 20,000 rpm for 30 min at 4° C. The pellet was then resuspended in fresh EBSS buffer made from 8.7 g/L Earle's Balanced Salts without phenol red (US Biological, Salem, Mass.), 2.2 g/L sodium bicarbonate, pH to 7.4. A Bradford protein assay (Bio-Rad, Hercules, Calif.) was used to determine the protein concentration and membranes were diluted to 500 μg/mL and stored in a −80° C. freezer for later use.
Radioligand competition binding experiments were conducted using thawed membranes. Test compounds were freshly dissolved in 30% DMSO and 70% H2O to a stock concentration of 100 μM. To assist the solubilization of free-base compounds, 10 μl of glacial acetic acid was added along with the DMSO. Each test compound was then diluted into 13 half-log serial dilutions using 30% DMSO vehicle; final test concentrations ranged from 10 μM to 10 pM. Previously frozen membranes were diluted in fresh EBSS to a 100 μg/mL (for hD2R or hD3R) or 200 μg/mL (hD4R) stock for binding. Radioligand competition experiments were conducted in glass tubes containing 300 μl fresh EBSS buffer with 0.2 mM sodium metabisulfite, 50 μl of diluted test compound, 100 μl of membranes (10 μg total protein for hD2R or hD3R, 20 μg total protein for hD4R), and 50 μl of [^3H]N-methylspiperone (0.4 nM final concentration; Perkin Elmer). Nonspecific binding was determined using 10 μM butaclamol (Sigma-Aldrich, St. Louis, Mo.) and total binding was determined with 30% DMSO vehicle. All compound dilutions were tested in triplicate and the reaction incubated for one hour at room temperature. The reaction was terminated by filtration through Whatman GF/B filters, presoaked for one hour in 0.5% polyethylenimine, using a Brandel R48 filtering manifold (Brandel Instruments, Gaithersburg, Md.). The filters were washed 3 times with 3 mL of ice cold EBSS buffer and transferred to scintillation vials. 3 mL CytoScint liquid scintillation cocktail (MP Biomedicals, Solon, Ohio) was added and vials were counted using a Perkin Elmer Tri-Carb 2910 TR liquid scintillation counter (Waltham, Mass.). IC50 values for each compound were determined from dose-response curves and Ki values were calculated using the Cheng-Prusoff equation; these analyses were performed using GraphPad Prism version 5.00 for Windows (GraphPad Software, San Diego, Calif.). Reported Ki values were determined from least three independent experiments.

[1] abbreviates: Table 1A, HEK 293 cells transfected with hD3R, [3H]N-methylspiperone.
The mark [2] stands for this setting: Table 1A, HEK 293 cells transfected with hD2LR, [3H]N-methylspiperone.

Where two headings read alike, the source gives them in different places.

human D2R, sequence (P14416 whole entry): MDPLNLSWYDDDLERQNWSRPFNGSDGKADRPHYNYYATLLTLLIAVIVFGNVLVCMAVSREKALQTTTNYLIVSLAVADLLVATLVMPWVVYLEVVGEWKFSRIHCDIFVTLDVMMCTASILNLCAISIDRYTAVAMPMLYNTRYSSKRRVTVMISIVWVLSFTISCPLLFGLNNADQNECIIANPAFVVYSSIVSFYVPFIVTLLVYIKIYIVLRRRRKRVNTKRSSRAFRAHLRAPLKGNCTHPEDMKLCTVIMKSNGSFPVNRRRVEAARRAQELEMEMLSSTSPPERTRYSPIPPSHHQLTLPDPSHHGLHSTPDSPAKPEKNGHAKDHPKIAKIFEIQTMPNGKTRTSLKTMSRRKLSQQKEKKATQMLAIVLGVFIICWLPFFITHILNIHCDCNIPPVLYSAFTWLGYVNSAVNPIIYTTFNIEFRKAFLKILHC
human D4R, sequence (P21917 whole entry): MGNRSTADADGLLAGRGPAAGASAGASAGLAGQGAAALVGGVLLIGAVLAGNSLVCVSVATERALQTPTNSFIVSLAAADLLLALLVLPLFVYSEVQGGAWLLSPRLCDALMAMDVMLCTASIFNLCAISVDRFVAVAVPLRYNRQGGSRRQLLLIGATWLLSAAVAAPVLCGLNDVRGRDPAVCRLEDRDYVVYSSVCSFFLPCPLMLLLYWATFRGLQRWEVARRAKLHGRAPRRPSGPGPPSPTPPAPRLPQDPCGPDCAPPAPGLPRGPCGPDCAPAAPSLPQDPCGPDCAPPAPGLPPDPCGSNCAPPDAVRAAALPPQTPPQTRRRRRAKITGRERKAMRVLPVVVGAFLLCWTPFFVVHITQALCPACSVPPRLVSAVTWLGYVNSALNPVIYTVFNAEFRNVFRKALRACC

For the compound `CCc1cc(Cl)c(OC)c(N2CCN(C[C@H](F)CCNC(=O)c3cc4ccccc4[nH]3)CC2)c1` [(R)-C4a, (R)-N-(4-(4-(3-chloro-5-ethyl-2-methoxyphenyl)piperazin-1-yl)-3-fluorobutyl)-1H-indole-2-carboxamide], the “D3R selectivity over D2R (D2R/D3R)” value at human D3R is listed as 1650 fold. The D2/D3 at human D3R (Table 1C) turned out to be 1646. Further, the Ki on human D3R (Table 1C) came out at 13 ± 2.94 nM; at human D2R (Table 1C) it was 21400 ± 1500 nM.

Turning to `CCc1cccc(N2CCN(C[C@H](F)CCNC(=O)c3cc4ccccc4[nH]3)CC2)c1Cl` [(R)-C5a, (R)-N-(4-(4-(2-chloro-3-ethylphenyl)piperazin-1-yl)-3-fluorobutyl)-1H-indole-2-carboxamide], on human D3R, the “D3R selectivity over D2R (D2R/D3R)” value was 215 fold. Further, on human D3R (Table 1C), the D2/D3 came out at 215 and the inhibitory constant (Ki) worked out at 0.373 nM. Moreover, on human D2R (Table 1C), the Ki came to 80.2 ± 13.8 nM.

Turning to `CCc1cc(Cl)c(OC)c(N2CCN(C[C@@H](F)CCNC(=O)c3cc4ccccc4[nH]3)CC2)c1` [(S)-C4a, (S)-N-(4-(4-(3-chloro-5-ethyl-2-methoxyphenyl)piperazin-1-yl)-3-fluorobutyl)-1H-indole-2-carboxamidec], the “D3R selectivity over D2R (D2R/D3R)” value on human D3R is on record as 535 fold. Also, at human D3R (Table 1C), the D2/D3 is 535 and the Ki was 35.3 nM. Moreover, the Ki at human D2R (Table 1C) was found to be 18900 ± 2720 nM.

Take `CCc1cccc(N2CCN(C[C@@H](F)CCNC(=O)c3cc4ccccc4[nH]3)CC2)c1Cl` [(S)-C5a, (S)-N-(4-(4-(2-chloro-3-ethylphenyl)piperazin-1-yl)-3-fluorobutyl)-1H-indole-2-carboxamide]: the “D3R selectivity over D2R (D2R/D3R)” value on human D3R is recorded as greater than 1000 fold. Also, on human D3R (Table 1C), the D2/D3 was 1060 and the Ki worked out at 0.84 nM. Moreover, the inhibition constant Ki at human D2R (Table 1C) turned out to be 891 ± 305 nM.

`CCc1cccc(N2CCN(CCCCNC(=O)c3cn4ccccc4n3)CC2)c1Cl` [Compound 22, N-(4-(4-(2-chloro-3-ethylphenyl)piperazin-1-yl)butyl)imidazo[1,2-a]pyridine-2-carboxamide]: at human D4R, the Ki was found to be 819 ± 175 nM, the D4/D2 was 145.2 and the D4/D3 turned out to be 2482. Also, at human D3R (setting [1]), the inhibition constant Ki was determined as 0.33 ± 0.085 nM. In addition, at human D3R (Table 1A), the D2/D3 is given as 17.1. Moreover, the inhibition constant (Ki) at human D2R (setting [2]) is 5.64 ± 0.98 nM.

`CCc1cccc(N2CCN(CC(O)CCNC(=O)c3cn4ccccc4n3)CC2)c1Cl` (stereo not shown) [Compound 23, N-(4-(4-(2-Chloro-3-ethylphenyl)piperazin-1-yl)-3-hydroxybutyl)imidazo[1,2-a]pyridine-2-carboxamide]: the figures for the Ki on human D4R, on human D3R (setting [1]) and at human D2R (setting [2]) were 11300 nM, 4.23 ± 0.84 nM and 193 ± 40.5 nM, respectively. For the same compound, the D4/D2 on human D4R was determined as 58.5. Further, the D4/D3 at human D4R was 2671. Also, the D2/D3 on human D3R (Table 1A) is 45.6.

In the case of `CCc1cccc(N2CCN(CCCCNC(=O)c3c(C)nc4sccn34)CC2)c1Cl` [Compound 24, N-(4-(4-(2-chloro-3-ethylphenyl)piperazin-1-yl)butyl)-6-methylimidazo[2,1-b]thiazole-5-carboxamide], at human D4R, the Ki turned out to be 143 ± 3.18 nM, the D4/D2 turned out to be 30.8 and the D4/D3 is given as 152. Further, the Ki at human D3R (setting [1]) was determined as 0.94 ± 0.13 nM. On human D3R (Table 1A), the D2/D3 was 4.9. For the same compound, the Ki at human D2R (setting [2]) came to 4.65 ± 1.24 nM.

With `CCc1c[nH]c(C(=O)NCCCCN2CCN(c3cccc(CC)c3Cl)CC2)n1` [Compound 25, N-(4-(4-(2-Chloro-3-ethylphenyl)piperazin-1-yl)butyl)-4-ethyl-1H-imidazole-2-carboxamide], at human D4R, the Ki turned out to be 500 ± 30.9 nM, the D4/D2 was 40.0 and the D4/D3 is 439. On human D3R (setting [1]), the inhibition constant (Ki) is 1.14 ± 0.17 nM. The D2/D3 at human D3R (Table 1A) is recorded as 11.0. Moreover, at human D2R (setting [2]), the Ki was 12.5 ± 1.07 nM.

On to `CCc1cccc(N2CCN(CCCCNC(=O)c3nc(C)c[nH]3)CC2)c1Cl` [Compound 26, N-(4-(4-(2-Chloro-3-ethylphenyl)piperazin-1-yl)butyl)-4-methyl-1H-imidazole-2-carboxamide], for which, on human D4R, the Ki turned out to be 529 ± 42.3 nM, the D4/D2 is 43.4 and the D4/D3 was 853. In addition, the Ki on human D3R (setting [1]) was 0.62 ± 0.096 nM. The D2/D3 at human D3R (Table 1A) is listed as 19.7. Further, at human D2R (setting [2]), the inhibition constant (Ki) is 12.2 ± 2.58 nM.

Regarding `CCc1cccc(N2CCN(CC(O)CCNC(=O)c3nc(C)c[nH]3)CC2)c1Cl` (stereo not shown) [Compound 27, N-(4-(4-(2-Chloro-3-ethylphenyl)piperazin-1-yl)-3-hydroxybutyl)-4-methyl-1H-imidazole-2-carboxamide], at human D4R, the Ki is 1960 ± 344 nM, the D4/D2 worked out at 13.1 and the D4/D3 is on record as 175. Besides, at human D3R (setting [1]), the inhibition constant (Ki) was 11.2 ± 2.66 nM. For the same compound, at human D3R (Table 1A), the D2/D3 is 13.4. Also, the Ki at human D2R (setting [2]) was found to be 150 ± 13.1 nM.

For the compound `CCc1cc(Cl)c(OC)c(N2CCN(CC(O)CCNC(=O)c3ccc4c(c3)OCO4)CC2)c1` (stereo not shown) [Compound 113a, N-(4-(4-(3-Chloro-5-ethyl-2-methoxyphenyl)piperazin-1-yl)-3-hydroxybutyl)benzo[d][1,3]dioxole-5-carboxamide], the D2/D3 on human D3R (Table 1C) came out at 15. For the same compound, the figures for the Ki on human D3R (Table 1C) and at human D2R (Table 1C) were 24.5 ± 4.44 nM and 364 ± 101 nM, respectively.

On to `CCc1cccc(N2CCN(CC(O)CCNC(=O)c3ccc4c(c3)OCO4)CC2)c1Cl` (stereo not shown) [Compound 113b, N-(4-(4-(2-Chloro-3-ethylphenyl)piperazin-1-yl)-3-hydroxybutyl)benzo[d 1,3]dioxole-5-carboxamide], for which, at human D3R (Table 1C), the D2/D3 came to 140 and the Ki came to 3.02 ± 0.742 nM. In addition, at human D2R (Table 1C), the Ki is 424 ± 79.9 nM.

On to `CCc1cc2c(cc1N1CCN(CC(O)CCNC(=O)c3cc4ccccc4o3)CC1)OCO2` (stereo not shown) [Compound 122, N-(4-(4-(6-Ethylbenzo[d][1,3]dioxol-5-yl)piperazin-1-yl)-3-hydroxybutyl)benzofuran-2-carboxamide], for which, at human D3R (Table 1C), the D2/D3 is 61 and the Ki amounted to 23.6 ± 7.35 nM. For the same compound, the Ki at human D2R (Table 1C) amounted to 1440 ± 48.8 nM.

In general, Ki refers to a dissociation constant, usually derived from enzyme kinetics or from competition with a known ligand.

(Values after patent US11337971B2, “Dopamine D3 receptor selective antagonists/partial agonists and uses thereof” (THE UNITED STATES OF AMERICA, AS REPRESENTED BY THE …, priority 2018, dated 2022).)
